Measurements taken from US20050153998A1, “Tetrahydroisoquinoline or isochroman compounds” (priority 2003, published 2005).

Biological target: T1, human ORL1 receptor (Homo sapiens, UniProt P41146)
T1 construct: expressed in transfected cells; host or cells: HEK-293
Assay: ORL1-receptor binding assay ([3H]nociceptin, SPA)
Conditions: human ORL1 receptor transfected HEK-293 cell membranes, 0.4 nM [3H]nociceptin; read-out: IC50 value with regard to binding activity for the ORL1 receptor
Experimental: The human ORL1 receptor transfected HEK-293 cell membranes were incubated for 45 min at 22° C. with 0.4 nM [^3H]nociceptin, 1.0 mg of wheat germ agglutinin-coated SPA beads and various concentrations of test compounds in a final volume of 200 μl of 50 mM HEPES buffer pH7.4 containing 10 mM MgCl2 and 1 mM EDTA. Non-specific binding was determined by the addition of 1 μM unlabeled nociceptin. After the reaction, the assay plate was centrifuged at 1,000 rpm for 1 min and then the radioactivity was measured by a Liquid Scintillation Counter.
Each percent NSB thus obtained was graphed as a function of compound concentration. A sigmoidal curve was used to determine 50% bindings (i.e., IC50 values).

T1 sequence (P41146 whole entry): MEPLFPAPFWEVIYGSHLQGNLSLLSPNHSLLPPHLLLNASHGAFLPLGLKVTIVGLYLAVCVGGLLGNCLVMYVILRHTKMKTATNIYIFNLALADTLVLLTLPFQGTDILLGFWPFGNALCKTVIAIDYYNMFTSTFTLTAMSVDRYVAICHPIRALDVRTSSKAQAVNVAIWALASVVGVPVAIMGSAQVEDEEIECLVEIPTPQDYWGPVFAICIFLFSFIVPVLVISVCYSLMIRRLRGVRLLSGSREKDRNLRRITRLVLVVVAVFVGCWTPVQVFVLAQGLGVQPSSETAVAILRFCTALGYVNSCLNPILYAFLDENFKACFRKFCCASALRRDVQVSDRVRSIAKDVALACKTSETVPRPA

Compound | IC50
CN1CC2(CCN(CC3Cc4c(F)ccc(O)c4CN3)CC2)c2ccccc21 (centres unmarked) [Example 11, 5-Fluoro-3-[(1-methyl-1,2-dihydro-1′H-spiro[indole-3,4′-piperidin]-1′-yl)methyl]-1,2,3,4-tetrahydroisoquinolin-8-ol] | 7.4 nM
CN1C(=O)C2(CCN(CC3Cc4c(F)ccc(O)c4CN3)CC2)c2ccccc21 (centres unmarked) [Example 22, 1′-[(5-Fluoro-8-hydroxy-1,2,3,4-tetrahydroisoquinolin-3-yl)methyl]-1-methylspiro[indole-3,4′-piperidin]-2(1H)-one] | 4.9 nM
